# Data: paper PMC5799700, “Screening for PPAR Non-Agonist Ligands Followed by Characterization of a Hit, AM-879, with Additional No-Adipogenic and cdk5-Mediated Phosphorylation Inhibition Properties” (Frontiers in Endocrinology, 2018)
# Entries after “also recorded” stand apart in the source; their conditions may differ.
# Tests used:
# PPARγ LBD [1] = target: T1, PPARγ LBD (Homo sapiens, UniProt P37231); test: Thermal shift assay (TSA), SYPRO Orange; assay type: binding; details: PPARγ 4 μM, threefold ligand excess (12 μM)
# T1 construct: construction (isoform PPARγ1), encoding AAs 207–477, inserted in pET 28a (+); made in house; host or cells: Escherichia coli BL21 (DE3)
# T1 sequence (P37231 207-477 isoform P37231-2): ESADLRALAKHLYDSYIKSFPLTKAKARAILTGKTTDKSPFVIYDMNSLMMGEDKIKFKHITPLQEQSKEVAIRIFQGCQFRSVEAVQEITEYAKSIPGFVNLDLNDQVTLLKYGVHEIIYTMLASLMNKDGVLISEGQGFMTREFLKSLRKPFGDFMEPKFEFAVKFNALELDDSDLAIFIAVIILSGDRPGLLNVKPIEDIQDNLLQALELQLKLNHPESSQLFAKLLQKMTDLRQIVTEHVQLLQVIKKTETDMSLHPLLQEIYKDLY
# Experimental: Protein thermal unfolding was monitored by measuring the SYPRO® Orange probe (Life technologies) fluorescence. […] Rosi was used as a PPARγ full agonist control and, dimethyl sulfoxide (DMSO), as apo-PPARγ control. TSA was performed in triplicates, in 96-well PCR microplates (Applied Biosystems—Life Technologies), through an RT-PCR device (7500 Real Time PCR System). Samples were heated at 1°C per min, from 10 to 90°C. Fluorescence intensities were plotted as a function of temperature and, the melting temperature (Tm) of the protein unfolding transition was obtained through a Boltzmann model in Origin Pro 8.1 and using an Excel based worksheet (DSF Analysis v3.0.2, ftp://ftp.sgc.ox.ac.uk/pub/biophysics).
# PPARγ LBD [2] = target: T1, PPARγ LBD; test: NanoDSF, intrinsic tryptophan and tyrosine fluorescence; assay type: binding; details: PPARγ 25 μM, ligand 75 μM (3 M excess)
# Experimental: Intrinsic tryptophan and tyrosine fluorescence were measured using NT48 device (NanoTemper), as a more sensitive technology to check protein stability in comparison to TSA. […] The initial fluorescence scan of loaded capillaries was performed at 20°C, monitoring emission wavelength at 330 and 350 nm in order to find the optimal signal range. After this step, samples were subjected to a temperature ramp of 1°C/min from 20 to 90°C and fluorescence was constantly monitored. Data were analyzed and Tm was determined using PR. ThermControl software (NanoTemper).
# PPARγ LBD [3] = target: T1, PPARγ LBD; test: ANS fluorescence quenching ligand-binding assay; details: PPARγ 1 μM, ANS 10 μM, ligand 0.1-60 μM, Hill model, 25°C; read-out: Kd (dissociation constant) from ANS displacement
# Experimental: 8-Anilino-1-naphthalenesulfonic acid fluorescence quenching assay was performed incubating 1 μM of PPARγ with 10 μM of the fluorescent probe ANS for 30 min. Following this, increasing concentrations (0.1–60 μM) of the pre-selected 20 compounds were titrated in protein-ANS solution. […] Fluorescence data were fitted to binding curves using Hill model for dissociation constant (Kd) calculation. All experiments were performed in triplicates and data were processed using the software Origin Pro 8.1.
# PPARγ [4] = target: T2, PPARγ (Homo sapiens, UniProt P37231); test: Cell transactivation assay, GAL4-PPARγ-LBD reporter gene; assay type: cell-based; details: 293T cells, up to 0.1 mM
# T2 construct: a chimeric protein composed by GAL4-DBD and PPARγ-LBD; expressed in transfected cells; host or cells: 293T (ATCC CRL-3216)
# T2 sequence (P37231 238-503 limits assumed): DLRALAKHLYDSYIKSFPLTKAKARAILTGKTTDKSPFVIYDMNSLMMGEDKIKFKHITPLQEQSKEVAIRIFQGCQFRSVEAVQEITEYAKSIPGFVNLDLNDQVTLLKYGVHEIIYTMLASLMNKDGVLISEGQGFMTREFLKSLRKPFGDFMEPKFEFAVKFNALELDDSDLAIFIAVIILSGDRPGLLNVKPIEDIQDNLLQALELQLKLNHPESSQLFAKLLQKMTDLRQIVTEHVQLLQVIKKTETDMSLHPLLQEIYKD
# Experimental: (§1) For transactivation assays, cells were seeded in 24-well plates (density of 2.0 × 10^5 cells/well), and transiently transfected with Lipofectamine® 2000 (Invitrogen) and 0.5 μg of the following plasmids: pRL-TK, a transfection control, which express Renilla reniformis luciferase constitutively; pGRE-LUC, which contains responsive element for GAL4 protein followed by reporter gene of firefly luciferase; pBIND-PPARγ, a chimeric protein composed by GAL4-DBD and PPARγ-LBD, under control of the cytomegalovirus promoter (CMV), in a proportion of 1.5 μg DNA:2 μL of Lipofectamine. As negative control, empty BlueScript plasmid was used instead of pBIND-PPARγ. For isotype specificity transactivation assay, cells were seeded in 96-well plates (density of 4.0 × 10^4 cells/well) and transfected with pRL-TK; pGRE-LUC and pBIND-PPARα; and pBIND-PPARβ.
# (§2) Four hours after transfection, the culture medium was exchanged to DMEM plus 10% FBS Charcoal stripped broth and 1 μM of each tested compound, Rosi or 1% DMSO was added to each well. In dose–response experiments, concentration of compounds was increased from 0.01 to 0.1 mM. After 24 h of treatment, reporter gene expression was measured with Dual-Luciferase® Reporter (DLR™) Assay System (Promega), according to manufacturer’s instructions in a GloMax-Multi + Detection System (Promega). […]
# PPARα = target: T3, PPARα (Homo sapiens, UniProt Q07869); test: Isotype specificity transactivation assay, GAL4-PPARα-LBD reporter gene; assay type: cell-based; details: 293T cells, ligands 1 μM, compared with full agonist
# T3 construct: using a GAL4-PPARα-LBD (A) or GAL4-PPARβ-LBD (B) reporter gene; expressed in transfected cells; host or cells: HEK 293T
# T3 sequence (Q07869 239-466 limits assumed): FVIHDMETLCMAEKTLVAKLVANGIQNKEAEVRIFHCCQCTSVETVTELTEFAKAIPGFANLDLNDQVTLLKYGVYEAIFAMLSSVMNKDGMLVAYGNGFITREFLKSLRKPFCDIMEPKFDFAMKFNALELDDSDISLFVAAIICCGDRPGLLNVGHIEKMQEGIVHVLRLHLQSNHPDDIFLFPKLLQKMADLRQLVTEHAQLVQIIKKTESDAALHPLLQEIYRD
# Experimental: as §1, with “293T (ATCC® CRL-3216™) cells were cultured in Dulbecco’s Modified Eagle’s Medium (DMEM, Gibco®) supplemented with 10% (v/v) fetal bovine serum, 50 U/mL penicillin, and […] streptomycin, at 37°C, and humidified atmosphere of 5% CO2. For” for “For”, “For isotype specificity transactivation assay, cells were seeded in 96-well plates (density of 4.0 × 10^4 cells/well) and transfected with pRL-TK; pGRE-LUC and pBIND-PPARα; and pBIND-PPARβ.” left out
# as §2, with “In dose–response experiments, concentration of compounds was increased from 0.01 to 0.1 mM.” left out
# PPARβ = target: T4, PPARβ (Homo sapiens, UniProt Q03181); test: Isotype specificity transactivation assay, GAL4-PPARβ-LBD reporter gene; assay type: cell-based; details: 293T cells, ligands 1 μM, compared with full agonist
# T4 construct: using a GAL4-PPARα-LBD (A) or GAL4-PPARβ-LBD (B) reporter gene; expressed in transfected cells; host or cells: HEK 293T
# T4 sequence (Q03181 211-439 limits assumed): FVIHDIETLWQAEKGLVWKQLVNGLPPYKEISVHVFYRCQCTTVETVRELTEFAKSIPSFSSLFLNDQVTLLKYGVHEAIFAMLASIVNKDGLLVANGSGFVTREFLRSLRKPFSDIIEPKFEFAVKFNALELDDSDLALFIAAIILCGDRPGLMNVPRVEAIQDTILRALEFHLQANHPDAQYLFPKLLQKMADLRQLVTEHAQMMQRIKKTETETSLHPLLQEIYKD
# Experimental: as §1, with “293T (ATCC® CRL-3216™) cells were cultured in Dulbecco’s Modified Eagle’s Medium (DMEM, Gibco®) supplemented with 10% (v/v) fetal bovine serum, 50 U/mL penicillin, and […] streptomycin, at 37°C, and humidified atmosphere of 5% CO2. For” for “For”, “For isotype specificity transactivation assay, cells were seeded in 96-well plates (density of 4.0 × 10^4 cells/well) and transfected with pRL-TK; pGRE-LUC and pBIND-PPARα; and pBIND-PPARβ.” left out
# as §2, with “In dose–response experiments, concentration of compounds was increased from 0.01 to 0.1 mM.” left out
# 3T3-L1 cells = test: Adipocyte differentiation assay, Oil Red O; assay type: cell-based; details: 1 μM ligand; for Adipocyte differentiation / adipogenesis (in words): Oil Red O staining
# Experimental: 3T3-L1 (ATCC® CRL-3242™) cells were cultured in DMEM (Gibco®) supplemented with 10% (v/v) fetal bovine serum, 50 U/mL penicillin, and […] streptomycin, at 37°C, and humidified atmosphere of 5% CO2. After achieved 70% confluency, cells were trypsinized and seeded in 6-well plates (Corning) at a density of 2.8 × 10^5 cells/well. After 2 days, cells were treated with dexamethasone ([…]) to induce preadipocytes differentiation, and 1 μM of Rosi, 1 μM of AM-879, or 1% DMSO. After treatment, the culture medium was exchanged every 48 h, supplemented with 1 μM of each ligand, for 6 days. In order to measure adipocyte differentiation, fully differentiated 3T3-L1 cells were washed with phosphate-buffered saline (PBS), fixed with 10% formalin (v/v) for 1 h, and then, stained with oil red solution (Oil Red O) (0.3% in isopropanol 60%) for 20 min. After staining, cells were washed with PBS and photographed in Nikon MTS microscope (Nikon). Lipid accumulation was also quantified by Oil Red O absorbance measurement at 520 nm. For this measurement, cells lysis was performed in 200 μL of isopropanol and 4% Igepal solution, and the absorbance of the samples was recorded in a 10-mm cuvette in a spectrophotometer (V-530, Jasco). Data were compared using unpaired t-test.
# [5] = system: PPARγ target genes in 3T3-L1 cells; test: Gene expression analysis (RT-qPCR) in differentiated 3T3-L1 cells; assay type: cell-based; details: 1 μM ligand, vs DMSO
# Experimental: Total RNA from differentiated 3T3-L1 cells was extracted by RNeasy kit (Qiagen) and cDNAs were synthesized with High-Capacity cDNA Reverse Transcription Kit (ThermoFischer Scientific). Quantitative PCR reactions were performed with SYBR Real Time PCR master mixes (ThermoFischer Scientific) and 50 ng of cDNA, in a 7500 Real Time PCR system (Applied Biosystems). Relative mRNA expression was determined by the ΔΔ-Ct method normalized to GAPDH levels. The sequences of primers used in this study are presented in Table S2 in Supplementary Material.
# [6] = target: T5, CDK5-mediated phosphorylation of PPARγ at serine 273 (Homo sapiens, UniProt P37231); test: In vitro phosphorylation assay (ADP-Glo); assay type: biochemical; details: PPARγ LBD 1.2 μM, 5 M excess of ligand, 50 ng CDK5/p35, ATP 10 μM, 1 h
# T5 construct: construction (isoform PPARγ1), encoding AAs 207–477, inserted in pET 28a (+); host or cells: Escherichia coli BL21 (DE3) for PPARγ LBD
# T5 sequence (P37231 207-477 isoform P37231-2): T1 sequence (P37231 207-477 isoform P37231-2)
# Experimental: Then, protein and ligands were incubated with 50 ng CDK5/p35 (Sigma), for 1 h, at room temperature, in the CDK5/p35 reaction buffer (composition recommended by manufacturer) and in the presence of ATP 10 μM. After reaction, ADP detection was performed by using ADP-Glo™ kinase assay (Promega) following manufacturer’s instructions. Luminesce signal was recorded using GloMax-Multi + Detection System (Promega) microplate luminometer.
# PPARγ [7] = target: T2, PPARγ; design: method as in PMID 24075729; details: cited from earlier work
SMILES,Tm from TSA (PPARγ LBD [1]),Tm from nanoDSF (PPARγ LBD [2]),Kd (PPARγ LBD [3]),"PPARγ activation (dose-response, in words) (PPARγ [4])",PPARα activation (PPARα),PPARβ activation (PPARβ),Lipid accumulation (Oil Red O absorbance at 520 nm) in comparison with DMSO (3T3-L1 cells; 6 days),Adipocyte differentiation / adipogenesis (in words) (3T3-L1 cells),Adipoq (Adiponectin) relative expression [5],Cd36 relative expression [5],Cebpa relative expression [5],Cfd (Adipsin) relative expression [5],Lep (Leptin) relative expression [5],Lpl relative expression [5],Pparg relative expression [5],Decrease of CDK5-mediated phosphorylation of PPARγ (Ser 273) [6],Effect on PPARγ activation (earlier description as possible antagonist) (PPARγ [7])
O=C(O)c1ccc(/C=C/C(=O)c2ccc3ccccc3c2)cc1 [P11],49.4 ± 0.1 °C,48.0 ± 0.172 °C,3.3 ± 0.7 µM,did not activate PPARγ even at the highest concentration; also recorded: did not present any significant change in PPARγ activation,none of them activated,none of them activated,–,–,–,–,–,–,–,–,–,–,–
"O=C(O)c1ccc(COc2ccccc2C=C2C(=O)c3ccccc3C2=O)cc1 [AM-879, 4-({2-[(1,3-dioxo-1,3-dihydro-2H-inden-2-ylidene)methyl]phenoxy}methyl) benzoic acid]",49.83 ± 0.01 °C,48.8 ± 0.114 °C,4.5 ± 0.6 µM,did not activate PPARγ even at the highest concentration; also recorded: did not present any significant change in PPARγ activation,none of them activated,none of them activated,1.12 ± 0.13 fold,did not induce a significant increase in adipocyte differentiation,slightly reduced levels,slightly reduced levels,did not alter,slightly reduced levels,did not alter,did not alter,did not alter,28%,reduced the activation of the receptor
"CN(CCOc1ccc(CC2SC(=O)NC2=O)cc1)c1ccccn1 (stereo not drawn) [Rosiglitazone, rosiglitazone, reference compound]",–,–,–,–,–,–,–,strongly induced adipogenesis,–,–,–,–,–,–,–,–,–
